Our source for the inhibition values is patent publication US9040519B2, “Fused tetracyclic pyrido [4,3-B] indole and pyrido [3,4-B] indole derivatives and methods of use” (Medivation Technologies, Inc., priority 2010, dated 2015).

The target of experiment [1] is T1, human recombinant serotonin (5-Hydroxytryptamine) 5-HT7 receptor (Homo sapiens, UniProt P34969).
T1 construct: expressed in transfected cells; host or cells: CHO
Put plainly: Serotonin 5-HT7 radioligand binding ([3H]LSD). The note with it: compound at 0.1 μM; CHO cells; read-out: Percentage inhibition of ligand binding, Serotonin 5-HT7. As to the method: To evaluate in radioligand binding assays the activity of compounds of the invention, human recombinant serotonin (5-Hydroxytryptamine) 5-HT7 receptor expressed in Chinese hamster ovary (CHO) cells (Roth, B. et al, J. Pharmacol. Exp. Ther. 268:1403, 1994; Shen, Y. et al, J. Biol. Chem. 268:18200, 1993) in a modified Tris-HCl buffer (50 mM Tris-HCl, pH 7.4, 10 mM MgCl2, 0.5 mM EDTA) was used. Compounds of invention were incubated with 5.5 nM [^3H] Lysergic acid diethylamide (LSD) for 2 h at 25° C. Non-specific binding was estimated in the presence of 10 μM Serotonin (5-HT). Receptor proteins were filtered and washed, the filters were then counted to determine [^3H]LSD specifically bound. Compounds were screened at 1 μM or lower, using 1% DMSO as vehicle. Biochemical assay results are presented as the percent inhibition of specific binding in Table 4.

In experiment [2] the target is T2, rat adrenergic α1A receptor (Rattus norvegicus, UniProt P43140).
T2 construct: rat adrenergic α1A receptor obtained from Wistar Rat submaxillary glands; from tissue; host or cells: Wistar rat submaxillary glands
T2 sequence (P43140 1-466): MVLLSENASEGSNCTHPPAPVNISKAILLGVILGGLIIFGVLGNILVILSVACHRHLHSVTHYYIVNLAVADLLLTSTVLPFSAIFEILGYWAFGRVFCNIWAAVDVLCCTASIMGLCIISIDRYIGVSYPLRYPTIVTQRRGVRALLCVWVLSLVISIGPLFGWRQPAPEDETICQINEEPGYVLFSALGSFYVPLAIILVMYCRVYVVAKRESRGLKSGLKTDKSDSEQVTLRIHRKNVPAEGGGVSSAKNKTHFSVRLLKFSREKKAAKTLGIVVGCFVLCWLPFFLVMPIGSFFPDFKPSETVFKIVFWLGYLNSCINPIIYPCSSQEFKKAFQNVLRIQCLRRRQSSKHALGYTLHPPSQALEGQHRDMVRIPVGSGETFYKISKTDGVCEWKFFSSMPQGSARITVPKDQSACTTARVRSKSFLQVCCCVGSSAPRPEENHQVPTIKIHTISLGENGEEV
Kind of experiment: Adrenergic α1A radioligand binding ([3H]Prazosin). The settings on record: compound at 0.1 μM; Wistar Rat submaxillary glands; read-out: Percentage inhibition of ligand binding, Adrenergic α1A. On the procedure:
To evaluate in radioligand binding assays the activity of compounds of the invention, rat adrenergic α1A receptor obtained from Wistar Rat submaxillary glands (Michel, A. et al, Br. J. Pharmacol. 98:883, 1989) in a modified Tris-HCl buffer (50 mM Tris-HCl buffer, pH 7.4, 0.5 mM EDTA) was used. Compounds of the invention were incubated with 0.25 nM [^3H]Prazosin for 60 min at 25° C. Non-specific binding was estimated in the presence of 10 μM phentolamine. Receptor proteins were filtered and washed, the filters were then counted to determine [^3H]Prazosin specifically bound. Compounds of the invention were screened at 1 μM or lower, using 1% DMSO as vehicle. Biochemical assay results are presented as the percent inhibition of specific binding in Table 3.

Experiment [3] addresses T3, human recombinant histamine H1 receptor (Homo sapiens, UniProt P35367).
T3 construct: expressed in transfected cells; host or cells: CHO-K1
Kind of experiment: Histamine H1 radioligand binding ([3H]Pyrilamine). The settings on record: compound at 0.1 μM; 1.2 nM [3H]Pyrilamine; CHO K1 cells; read-out: Histamine H1 Binding (0.1 μM), percentage inhibition. As to the method:
To evaluate in radioligand binding assays the activity of compounds of the invention, human recombinant histamine H1 receptor expressed in Chinese hamster ovary (CHO) K1 cells (De Backer, M. et al, Biochem. Biophys. Res. Comm. 197(3):1601, 1993) in a modified Tris-HCl buffer (50 mM Tris-HCl, pH 7.4, 2 mM MgCl2, 100 mM NaCl, 250 mM Sucrose) was used. Compounds of the invention were incubated with 1.2 nM [^3H]Pyrilamine for 180 min at 25° C. Non-specific binding was estimated in the presence of 1 μM Pyrilamine. Receptor proteins were filtered and washed, the filters were then counted to determine [^3H]Pyrilamine specifically bound. Compounds were screened at 1 μM or lower, using 1% DMSO as vehicle. Biochemical assay results are presented as the percent inhibition of specific binding in Table 2.

Experiment [4] concerns the target T4, human recombinant serotonin (5-Hydroxytryptamine) 5-HT2C receptor (Homo sapiens, UniProt P28335).
T4 construct: expressed in transfected cells; host or cells: CHO-K1
T4 sequence (P28335 33-458): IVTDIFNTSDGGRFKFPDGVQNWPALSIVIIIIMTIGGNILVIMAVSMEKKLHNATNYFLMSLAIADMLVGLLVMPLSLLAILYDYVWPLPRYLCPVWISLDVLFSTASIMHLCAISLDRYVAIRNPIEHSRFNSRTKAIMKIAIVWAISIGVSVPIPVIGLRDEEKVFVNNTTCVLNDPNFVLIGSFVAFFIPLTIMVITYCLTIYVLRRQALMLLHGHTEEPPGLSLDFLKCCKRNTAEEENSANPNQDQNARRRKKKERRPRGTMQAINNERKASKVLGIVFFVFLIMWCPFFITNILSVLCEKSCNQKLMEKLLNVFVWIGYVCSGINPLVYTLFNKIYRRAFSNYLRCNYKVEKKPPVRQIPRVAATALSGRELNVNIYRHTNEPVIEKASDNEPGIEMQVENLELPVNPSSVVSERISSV
Kind of experiment: Serotonin 5-HT2C radioligand binding ([3H]Mesulergine). The note with it: compound at 0.1 μM; CHO K1 cells; read-out: Percentage inhibition of ligand binding, Serotonin 5-HT2C. As to the method:
To evaluate in radioligand binding assays the activity of compounds of the invention, human recombinant serotonin (5-Hydroxytryptamine) 5-HT2C receptor expressed in Chinese hamster ovary (CHO) K1 cells (Wolf, W. et al, J. Neurochem. 69:1449, 1997) in a modified Tris-HCl buffer (50 mM Tris-HCl, pH 7.4, 0.1% Ascorbic Acid, 10 μM Pargyline) was used. Compounds of the invention were incubated with 1 nM [^3H]Mesulergine for 60 min at 25° C. Non-specific binding was estimated in the presence of 1 μM Mianserin. Receptor proteins were filtered and washed, the filters were then counted to determine [^3H]Mesulergine specifically bound. Compounds were screened at 1 μM or lower, using 1% DMSO as vehicle. Biochemical assay results are presented as the percent inhibition of specific binding in Table 4.

T3 sequence (P35367 whole entry): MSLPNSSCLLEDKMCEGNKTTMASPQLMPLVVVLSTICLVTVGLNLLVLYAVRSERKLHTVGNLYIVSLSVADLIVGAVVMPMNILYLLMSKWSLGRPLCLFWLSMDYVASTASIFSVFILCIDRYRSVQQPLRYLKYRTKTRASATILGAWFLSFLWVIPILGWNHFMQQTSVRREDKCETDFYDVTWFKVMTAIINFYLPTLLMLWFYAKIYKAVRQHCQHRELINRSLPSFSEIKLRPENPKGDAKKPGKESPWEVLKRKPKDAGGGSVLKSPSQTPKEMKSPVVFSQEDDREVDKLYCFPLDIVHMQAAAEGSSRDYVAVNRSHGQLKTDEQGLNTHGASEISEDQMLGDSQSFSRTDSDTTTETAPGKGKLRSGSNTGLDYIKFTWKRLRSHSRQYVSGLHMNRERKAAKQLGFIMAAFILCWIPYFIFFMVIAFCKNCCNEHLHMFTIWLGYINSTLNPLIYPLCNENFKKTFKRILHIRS
T1 sequence (P34969 whole entry): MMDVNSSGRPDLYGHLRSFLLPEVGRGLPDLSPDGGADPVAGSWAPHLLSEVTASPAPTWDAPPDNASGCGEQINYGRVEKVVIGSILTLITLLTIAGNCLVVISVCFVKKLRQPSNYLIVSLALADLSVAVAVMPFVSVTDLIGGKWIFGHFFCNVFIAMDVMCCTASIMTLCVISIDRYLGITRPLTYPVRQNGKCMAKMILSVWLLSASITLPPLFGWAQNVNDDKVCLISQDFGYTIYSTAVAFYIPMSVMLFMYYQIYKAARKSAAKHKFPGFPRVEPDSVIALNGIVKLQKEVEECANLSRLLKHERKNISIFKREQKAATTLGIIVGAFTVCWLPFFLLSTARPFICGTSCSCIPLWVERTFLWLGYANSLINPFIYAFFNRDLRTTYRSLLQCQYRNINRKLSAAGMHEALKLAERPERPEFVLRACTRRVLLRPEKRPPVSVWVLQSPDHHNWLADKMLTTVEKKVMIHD

With `Cc1ccc2c(c1)c1c3n2C(c2ccccc2)=CCC3(C)CN(C)C1` (stereo not drawn) [Compound 10, 2,3a,10-trimethyl-6-phenyl-2,3,3a,4-tetrahydro-1H-indolo[3,2,1-ij][1,6]naphthyridine], the inhibition at 0.1 µM in experiment [1] is 12%; in experiment [2] it was -4%; in experiment [3], 3%; in experiment [4], 17%.
Regarding `Cc1ccc2c(c1)c1c3n2CC(c2ccncc2)=CCC3(C)CN(C)C1` (stereo not drawn) [Compound 11, 2,3a,10-trimethyl-6-pyridin-4-yl-1,2,3,3a,4,7-hexahydro-2,7a-diaza-cyclohepta[jk]fluorene], the inhibition at 0.1 µM is -8% in experiment [1], 25% in experiment [2], 2% in experiment [3] and 7% in experiment [4].
`Cc1ccc2c(c1)c1c3n2C(c2ccccc2)CCC3(C)CN(C)C1` (stereo not drawn) [Compound 12, 2,3a,10-trimethyl-6-phenyl-2,3,3a,4,5,6-hexahydro-1H-indolo[3,2,1-ij][1,6]naphthyridine]: the inhibition at 0.1 µM in experiment [1] was -17%; in experiment [2], 12%; in experiment [3], 20%; in experiment [4], 11%.

A word on the inhibition: it is the drop in the measured response relative to a control, in per cent.
